Data reported in US10711007B2, “Selective inhibitors of protein arginine methyltransferase 5 (PRMT5)” (Prelude Therapeutics, Incorporated, priority 2018, dated 2020).

Legend:
[1] = test system: γ-globin expression in erythroid progenitors; assay: γ-globin induction by quantitative PCR in human erythroid progenitor cells; format: cell-based; settings: 9 days of treatment, N=1
Experimental: Compounds were dissolved in DMSO to make 10 mM stock solutions, and further diluted to make 1 mM and 0.1 mM stocks.
(§1) Human erythroid progenitor cells were generated from purified CD34+ cells from mobilized peripheral blood purchased from AllCells. CD34+ cells were cultured in StemSpan SFEM II (StemCell Technologies, Catalog #09605) supplemented with 100 ng/ml FLT3 ligand (R&D systems, Catalog #308-FK), 100 ng/ml SCF (R&D systems, Catalog #255-SC), 20 ng/ml IL-3 (R&D systems, Catalog #203-IL), 20 ng/ml IL-6 (R&D systems, Catalog #206-IL) for 6 days, then reseeded into the same medium supplemented with 20 ng/ml SCF, 5 ng/ml IL-3, 1 U/ml EPO (R&D systems, Catalog #287-TC), 2 μM dexamethasone (Sigma-Aldrich, Catalog # D4902), 1 μM β-estradiol (Sigma-Aldrich, Catalog # E2758). Cells were treated with 0.1 and 1 μM compound from Day 8 of differentiation. Media and compound were renewed every 3 days and cells were collected for RNA isolation after 9 days of treatment.
Assessment of γ-Globin Induction by Quantitative PCR
RNA was isolated using Quick-RNA Microprep kit (Zymo Research, Catalog # Z1050), cDNA was synthesized using qScript cDNA SuperMix (Quantabio, Catalog #95048). Quantitative PCR for y-globin was performed using PerfeCTa SYBR Green FastMix (Quantabio, Catalog #95071) on Bio-Rad CFX Connect Real-Time PCR Detection System. […]

[2] = target: PRMT5/MEP50 complex (Homo sapiens (Human), UniProt O14744); assay: Biochemical assay: PRMT5/MEP50 methylation of histone H4 based AcH4-23, SPA readout; settings: PRMT5/MEP50 2.5 nM, 300 nM AcH4-23, 1 μM 3H-SAM
In short: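 PRMT5/MEP50 (2.5 nM final) preincubated with compound 20 min at 37°C alongside 300 nM AcH4-23 peptide. Reaction started with 1 µM [3H-methyl]-SAM, run 30 min at 37°C and quenched with guanidine HCl. Streptavidin SPA beads, scintillation counting; IC50 from four-parameter Hill fit.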

[3] = test system: fetal hemoglobin expressing erythroid cells (% F cells); assay: % F cells by flow cytometry in human erythroid cells; format: cell-based; settings: erythroid progenitors, Day 7 of treatment, N=1
Experimental: as §1
Assessment of % F Cells by Flow Cytometry
Human erythroid cells were collected on Day 7 of treatment with compound. Cells were fixed in 0.05% glutaraldehyde (Electron Microscopy Sciences, Catalog #16019), permeabilized with 0.1% Triton-X and stained with FITC-conjugated antibody directed to fetal hemoglobin (ThermoFisher, Catalog # MHFH01). Analysis of fetal hemoglobin expressing erythroid cells (% F cells) was performed on an Attune Nxt flow cytometer (ThermoFisher).

[4] = test system: sDMA (SmD3me2s) in human PBMCs; assay: Western blotting for sDMA in PHA-L activated human PBMCs; format: cell-based; settings: PBMC, 72 h, 3 days
Experimental: Compound Titration and Cell Culture:
Compounds were dissolved in DMSO to make 10 mM stock solutions. Human peripheral blood mononuclear cells (PBMCs) from healthy donors were purchased from AllCells (Emeryville, Calif.), maintained in RPMI 1640 (Corning Cellgro, Catalog #: 10-040-CV) supplemented with 10% v/v heat-inactivated FBS (GE Healthcare, Catalog #: SH30910.03), 2 mM L-Glutamine (Corning Cellgro, Catalog #25005CV) and 1× Penicillin-Streptomycin (Sigma-Aldrich, Catalog # P4333) in a CO2 incubator (5% CO2) at 37° C.
To Determine Enzyme Inhibition IC50 Values in Human PBMCs:
Freshly thawed cells were seeded at a density of 25×10^5 cells/ml in 2 ml of media in a 12 well plate. Cells were activated by addition of 5 μg/ml PHA-L (Sigma-Aldrich, Catalog # L4144) for 3 days. A series of 8-point, 3-fold dilutions of compound were dispensed into wells from 1 mM stock solution using TECAN digital dispenser (D300e) and concentration of DMSO was normalized to 0.1%. […]
Cells were harvested 3 days later, resuspended in 15 μL PBS, lysed in 4% SDS, and homogenized by passing through homogenizer column (Omega Biotek, Catalog #: HCR003). Total protein concentration were determined by BCA assay (ThermoFisher Scientific, Catalog #: 23225). […] SmD3me2s bands were quantified by ImageJ. […] IC50 values were calculated using Graphpad Prism ([Inhibitor] vs. normalized response-Variable slope).

Chain of PRMT5/MEP50 complex (O14744 whole entry): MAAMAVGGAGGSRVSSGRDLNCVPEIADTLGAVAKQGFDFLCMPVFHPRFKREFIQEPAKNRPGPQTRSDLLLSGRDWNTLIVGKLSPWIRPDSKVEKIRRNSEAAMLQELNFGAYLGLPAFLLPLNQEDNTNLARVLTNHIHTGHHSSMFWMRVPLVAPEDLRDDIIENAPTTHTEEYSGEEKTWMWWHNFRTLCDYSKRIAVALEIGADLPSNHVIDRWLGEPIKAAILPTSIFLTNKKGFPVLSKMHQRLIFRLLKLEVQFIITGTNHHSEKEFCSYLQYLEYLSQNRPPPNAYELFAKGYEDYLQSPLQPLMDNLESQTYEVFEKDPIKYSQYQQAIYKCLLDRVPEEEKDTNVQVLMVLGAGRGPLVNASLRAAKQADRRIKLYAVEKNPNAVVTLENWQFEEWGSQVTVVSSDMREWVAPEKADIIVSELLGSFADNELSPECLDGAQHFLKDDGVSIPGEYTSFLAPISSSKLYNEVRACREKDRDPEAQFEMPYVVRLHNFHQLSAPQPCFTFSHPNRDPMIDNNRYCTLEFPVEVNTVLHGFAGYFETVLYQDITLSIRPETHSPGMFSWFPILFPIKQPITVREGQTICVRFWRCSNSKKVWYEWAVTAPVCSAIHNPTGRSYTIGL
Chain of PRMT5/MEP50 complex (Q9BQA1 whole entry partner): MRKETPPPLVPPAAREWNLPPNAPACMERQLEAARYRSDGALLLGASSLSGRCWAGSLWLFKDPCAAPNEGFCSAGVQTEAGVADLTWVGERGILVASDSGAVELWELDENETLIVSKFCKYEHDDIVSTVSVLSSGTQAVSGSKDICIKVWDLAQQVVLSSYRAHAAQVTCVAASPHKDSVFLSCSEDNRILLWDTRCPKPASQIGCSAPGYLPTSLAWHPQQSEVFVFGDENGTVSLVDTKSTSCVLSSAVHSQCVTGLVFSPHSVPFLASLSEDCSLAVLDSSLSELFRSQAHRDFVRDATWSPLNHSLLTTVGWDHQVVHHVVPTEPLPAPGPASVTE

IC50 [2]: 1 nM
Structure (SMILES): Nc1ncnc2c1ccn2[C@@H]1O[C@H]([C@@H]2OCc3ccc(Cl)cc32)[C@@H](O)[C@H]1O [Example 5, (2R,3R,4S,5S)-2-(4-amino-7H-pyrrolo[2,3-d]pyrimidin-7-yl)-5-((R)-6-chloro-1,3-dihydroisobenzofuran-1-yl)tetrahydrofuran-3,4-diol]
increase in expression of γ-globin ([1]; 0.1 μM): 1.5 fold | increase in expression of γ-globin ([1]; 1 μM): 2 fold | increase in % F cells compared to DMSO treated control ([3]; 0.1 μM): 1.3 fold | increase in % F cells compared to DMSO treated control ([3]; 1 μM): 3 fold | IC50 [4]: 16 nM
